Tests used:
Falcipain 2 [1] = molecular target: T1, Falcipain 2 (Plasmodium falciparum, UniProt Q9N6S8); test: Inhibitory activity against Falcipain-2
T1 sequence (Q9N6S8 whole entry): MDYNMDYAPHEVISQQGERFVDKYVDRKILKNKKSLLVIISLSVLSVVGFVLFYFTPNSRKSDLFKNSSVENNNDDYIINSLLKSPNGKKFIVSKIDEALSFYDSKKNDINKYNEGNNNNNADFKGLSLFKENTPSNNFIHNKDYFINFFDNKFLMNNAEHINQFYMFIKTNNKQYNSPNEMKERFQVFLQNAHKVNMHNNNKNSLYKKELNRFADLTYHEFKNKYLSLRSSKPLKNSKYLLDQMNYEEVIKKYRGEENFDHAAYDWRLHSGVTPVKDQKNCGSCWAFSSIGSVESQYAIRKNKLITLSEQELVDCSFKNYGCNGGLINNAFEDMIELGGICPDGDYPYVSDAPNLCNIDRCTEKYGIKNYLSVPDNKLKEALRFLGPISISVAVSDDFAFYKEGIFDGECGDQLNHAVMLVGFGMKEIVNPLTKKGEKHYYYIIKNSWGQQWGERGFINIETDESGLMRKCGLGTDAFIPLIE

Cruzipain [2] = molecular target: T2, Cruzipain (Trypanosoma cruzi, UniProt P25779); test: Inhibitory activity against the Trypanosoma cruzi cysteine protease cruzain
T2 sequence (P25779 whole entry): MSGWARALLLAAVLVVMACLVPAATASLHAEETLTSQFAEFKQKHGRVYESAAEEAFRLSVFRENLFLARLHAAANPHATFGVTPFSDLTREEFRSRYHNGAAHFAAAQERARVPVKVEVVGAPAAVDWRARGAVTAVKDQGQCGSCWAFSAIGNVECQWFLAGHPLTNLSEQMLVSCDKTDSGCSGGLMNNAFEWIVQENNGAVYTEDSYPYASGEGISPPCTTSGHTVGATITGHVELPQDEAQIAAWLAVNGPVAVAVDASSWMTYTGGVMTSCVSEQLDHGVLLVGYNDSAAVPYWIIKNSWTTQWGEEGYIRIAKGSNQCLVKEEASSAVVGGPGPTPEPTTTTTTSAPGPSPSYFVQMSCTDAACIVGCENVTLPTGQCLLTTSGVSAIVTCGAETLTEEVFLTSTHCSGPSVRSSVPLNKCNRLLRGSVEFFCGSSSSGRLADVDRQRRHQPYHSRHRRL

Rhodesain = Rhodesain (Trypanosoma brucei rhodesiense, UniProt Q95PM0); test: Inhibitory activity against Trypanosoma brucei rhodesiense cysteine protease rhodesain
Sequence of Rhodesain (Q95PM0 whole entry): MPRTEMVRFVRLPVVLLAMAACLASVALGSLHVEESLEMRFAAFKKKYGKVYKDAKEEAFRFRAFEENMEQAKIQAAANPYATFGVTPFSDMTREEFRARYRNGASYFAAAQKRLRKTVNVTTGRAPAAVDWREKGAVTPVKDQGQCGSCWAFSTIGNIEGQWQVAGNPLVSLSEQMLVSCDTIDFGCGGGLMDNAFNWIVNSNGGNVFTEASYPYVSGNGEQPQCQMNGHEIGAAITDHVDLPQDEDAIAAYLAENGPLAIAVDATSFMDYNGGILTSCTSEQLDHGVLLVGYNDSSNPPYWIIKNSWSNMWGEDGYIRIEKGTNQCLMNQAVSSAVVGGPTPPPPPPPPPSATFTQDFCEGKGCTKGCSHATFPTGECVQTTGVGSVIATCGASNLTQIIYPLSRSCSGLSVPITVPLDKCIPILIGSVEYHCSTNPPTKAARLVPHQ

Falcipain 2 [3] = molecular target: T1, Falcipain 2; test: Inhibitory activity against Falcipain-2; no effect
Falcipain 2 [4] = molecular target: T1, Falcipain 2; test: Inhibitory activity against Falcipain-2; No effect
Cruzipain [5] = molecular target: T2, Cruzipain; test: Inhibitory activity against Cruzain;range is 20-50

With `NC(=S)/N=N/c1c(O)[nH]c2ccc([N+](=O)[O-])cc12` the IC50 (Falcipain 2 [1]) was 4.4 µM, the IC50 (Cruzipain [2]) was 30 µM and the IC50 (Rhodesain) was 17 µM.
`O=C1C(=O)N(C(=O)OCc2ccccc2)c2ccc(Cl)cc21` was tested, and the IC50 (Falcipain 2 [3]) was “Not Active”, the IC50 (Cruzipain [2]) was 80 µM and the IC50 (Rhodesain) was > 10 µM.
For `O=C1Nc2ccccc2C1=O` [ISATIN], the IC50 (Falcipain 2 [4]) was “Not Active”, the IC50 (Cruzipain [2]) was > 10 µM and the IC50 (Rhodesain) was > 10 µM.
With `O=C1Nc2ccc([N+](=O)[O-])cc2C1=O` [5-NITROISATIN] the IC50 (Falcipain 2 [1]) was 42.6 µM, the IC50 (Cruzipain [2]) was > 10 µM and the IC50 (Rhodesain) was > 10 µM.
With `O=C1Nc2ccc(OC(F)(F)F)cc2C1=O` the IC50 (Falcipain 2 [3]) was “Not Active”, the IC50 (Cruzipain [2]) was > 10 µM and the IC50 (Rhodesain) was > 10 µM.
`O=C1C(=O)N(C(=O)OCc2ccccc2)c2ccc(F)cc21` was tested, and the IC50 (Cruzipain [2]) was > 10 µM and the IC50 (Rhodesain) was > 10 µM.
With `O=C1C(=O)N(S(=O)(=O)c2ccccc2)c2ccccc21` the IC50 (Falcipain 2 [3]) was “Not Active” and the IC50 (Rhodesain) was 15 µM.
`O=C1Nc2ccc(Cl)cc2C1=O` was tested, and the IC50 (Falcipain 2 [3]) was “Not Active” and the IC50 (Cruzipain [2]) was > 10 µM.
With `Cc1cc(C)c2[nH]c(O)c(/N=N/C(=N)S)c2c1` the IC50 (Falcipain 2 [1]) was 13.2 µM, the IC50 (Cruzipain [2]) was 16 µM and the IC50 (Rhodesain) was 15 µM.
For `NC(=S)/N=N/c1c(O)[nH]c2ccc(Cl)cc12`, the IC50 (Falcipain 2 [1]) was 32.8 µM, the IC50 (Cruzipain [2]) was 21 µM and the IC50 (Rhodesain) was 6 µM.
With `Cc1ccc2c(c1)C(=O)C(=O)N2` the IC50 (Falcipain 2 [4]) was “Not Active” and the IC50 (Cruzipain [2]) was > 10 µM.
Work on `Cc1cc(Cl)cc2c(/N=N/C(=N)S)c(O)[nH]c12` yielded an IC50 (Falcipain 2 [1]) of 9.4 µM, an IC50 (Cruzipain [2]) of 10.5 µM and an IC50 (Rhodesain) of 3 µM.
With `Cc1cc(C)c2c(c1)C(=O)C(=O)N2` the IC50 (Falcipain 2 [3]) was “Not Active” and the IC50 (Cruzipain [2]) was > 10 µM.
In the case of `NC(=S)/N=N/c1c(O)[nH]c2ccc(F)cc12`, the IC50 (Falcipain 2 [1]) is reported as 38.6 µM, the IC50 (Cruzipain [2]) is reported as 30 µM and the IC50 (Rhodesain) is reported as 15 µM.
In the case of `Cc1ccc2c(c1)C(=O)C(=O)N2Cc1ccccc1-c1ccccc1`, the IC50 (Falcipain 2 [1]) is reported as 9.2 µM, the IC50 (Cruzipain [2]) is reported as 2.8 µM and the IC50 (Rhodesain) is reported as > 10 µM.
`COc1cccc(CN2C(=O)C(=O)c3cc(C)ccc32)c1` was tested, and the IC50 (Falcipain 2 [1]) was 21.9 µM, the IC50 (Cruzipain [2]) was 2 µM and the IC50 (Rhodesain) was > 10 µM.
With `O=C1Nc2ccc(Br)cc2C1=O` the IC50 (Falcipain 2 [3]) was “Not Active” and the IC50 (Cruzipain [2]) was > 10 µM.
`NC(=S)/N=N/c1c(O)[nH]c2ccccc12` gave an IC50 (Falcipain 2 [1]) of 38.8 µM, an IC50 (Cruzipain [2]) of 8 µM and an IC50 (Rhodesain) of 3.5 µM.
`Cc1ccc2c(c1)C(=O)C(=O)N2Cc1ccc(Cl)cc1` was tested, and the IC50 (Falcipain 2 [3]) was “Not Active”, the IC50 (Cruzipain [2]) was > 10 µM and the IC50 (Rhodesain) was > 10 µM.
`COc1cccc(CN2C(=O)C(=O)c3cc(Cl)ccc32)c1` was tested, and the IC50 (Falcipain 2 [1]) was 34.6 µM, the IC50 (Cruzipain [2]) was > 10 µM and the IC50 (Rhodesain) was > 10 µM.
For `O=C1Nc2ccc(I)cc2C1=O` [5-IODOISATIN], the IC50 (Falcipain 2 [3]) was “Not Active” and the IC50 (Cruzipain [2]) was > 10 µM.
`O=C1C(=O)N(C(=O)c2ccccc2)c2ccccc21` was tested, and the IC50 (Falcipain 2 [3]) was “Not Active” and the IC50 (Rhodesain) was 100 µM.
`O=C1C(=O)N(c2ccccc2)c2ccccc21` [PHENYL ISATIN] was tested, and the IC50 (Falcipain 2 [3]) was “Not Active” and the IC50 (Cruzipain [2]) was > 10 µM.
`NC(=S)/N=N/c1c(O)[nH]c2ccc(Br)cc12` gave an IC50 (Falcipain 2 [1]) of 29.6 µM, an IC50 (Cruzipain [2]) of 20 µM and an IC50 (Rhodesain) of 7 µM.
For `O=C1C(=O)N(Cc2ccc(Cl)cc2)c2ccc(Cl)cc21`, the IC50 (Falcipain 2 [1]) was 31.2 µM, the IC50 (Cruzipain [2]) was 6 µM and the IC50 (Rhodesain) was > 10 µM.
With `O=C1C(=O)N(C(=O)OCc2ccccc2)c2ccccc21` the IC50 (Falcipain 2 [3]) was “Not Active” and the IC50 (Rhodesain) was 30 µM.
With `NC(=S)/N=N/c1c(O)[nH]c2ccc(I)cc12` the IC50 (Falcipain 2 [1]) was 28.7 µM, the IC50 (Cruzipain [2]) was 9 µM and the IC50 (Rhodesain) was 1 µM.
`CN1C(=O)C(=O)c2ccccc21` was tested, and the IC50 (Falcipain 2 [3]) was “Not Active” and the IC50 (Cruzipain [2]) was > 10 µM.
`Cc1ccc2[nH]c(O)c(/N=N/C(=N)S)c2c1` gave an IC50 (Falcipain 2 [1]) of 43.9 µM, an IC50 (Cruzipain [5]) of 50 µM and an IC50 (Rhodesain) of 15 µM.
With `O=C1C(=O)N(Cc2ccccc2)c2ccc(I)cc21` the IC50 (Cruzipain [2]) was 90 µM and the IC50 (Rhodesain) was > 10 µM.
With `O=C1C(=O)N(Cc2ccccc2)c2ccccc21` the IC50 (Falcipain 2 [3]) was “Not Active”, the IC50 (Cruzipain [2]) was > 10 µM and the IC50 (Rhodesain) was > 10 µM.
With `O=C1C(=O)N(Cc2ccccc2)c2ccc(Cl)cc21` the IC50 (Falcipain 2 [1]) was 46.9 µM, the IC50 (Cruzipain [2]) was 90 µM and the IC50 (Rhodesain) was > 10 µM.
For `Cc1ccc(C)c(CN2C(=O)C(=O)c3cc(C)ccc32)c1`, the IC50 (Falcipain 2 [3]) was “Not Active”, the IC50 (Cruzipain [2]) was 80 µM and the IC50 (Rhodesain) was > 10 µM.
`O=C1Nc2ccc(F)cc2C1=O` [5-FLUOROISATIN] was tested, and the IC50 (Falcipain 2 [3]) was “Not Active” and the IC50 (Cruzipain [2]) was > 10 µM.

Reference: ChEMBL document CHEMBL1145878, “Synthesis and evaluation of isatins and thiosemicarbazone derivatives against cruzain, falcipain-2 and rhodesain” (Bioorg Med Chem Lett, 2003)
